{"source": "PubChem BioAssay (NCI)", "test_in_all_cases": "inhibition of tumour cell growth, NCI panel, 48 h", "key": {"UACC-257 melanoma": {"test_system": "UACC-257 melanoma"}, "PC-3 prostate": {"test_system": "PC-3 prostate"}, "U251 CNS": {"test_system": "U251 CNS"}, "LOX IMVI melanoma": {"test_system": "LOX IMVI melanoma"}, "UO-31 renal": {"test_system": "UO-31 renal"}, "MCF7 breast": {"test_system": "MCF7 breast"}, "BT-549 breast": {"test_system": "BT-549 breast"}, "M14 melanoma": {"test_system": "M14 melanoma"}, "HS 578T breast": {"test_system": "HS 578T breast"}, "SR leukemia": {"test_system": "SR leukemia"}, "T-47D breast": {"test_system": "T-47D breast"}, "MOLT-4 leukemia": {"test_system": "MOLT-4 leukemia"}, "TK-10 renal": {"test_system": "TK-10 renal"}, "786-0 renal": {"test_system": "786-0 renal"}, "SF-295 CNS": {"test_system": "SF-295 CNS"}, "HCT-116 colon": {"test_system": "HCT-116 colon"}, "COLO 205 colon": {"test_system": "COLO 205 colon"}, "HCT-15 colon": {"test_system": "HCT-15 colon"}, "CCRF-CEM leukemia": {"test_system": "CCRF-CEM leukemia"}, "UACC-62 melanoma": {"test_system": "UACC-62 melanoma"}, "MALME-3M melanoma": {"test_system": "MALME-3M melanoma"}, "IGROV1 ovarian": {"test_system": "IGROV1 ovarian"}, "NCI-H226 lung": {"test_system": "NCI-H226 lung"}, "HOP-92 NSCLC": {"test_system": "HOP-92 NSCLC"}, "RXF 393 renal": {"test_system": "RXF 393 renal"}, "OVCAR-4 ovarian": {"test_system": "OVCAR-4 ovarian"}, "RPMI-8226 leukemia": {"test_system": "RPMI-8226 leukemia"}, "OVCAR-3 ovarian": {"test_system": "OVCAR-3 ovarian"}, "ACHN renal": {"test_system": "ACHN renal"}}, "note": "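Compound exposure: 48 hours, 5 concentrations, 96-well plates. GI50 is the concentration that inhibits growth by half. Definition used: TGI = concentration required for complete inhibition of growth.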", "data": [{"smiles": "O=C(CN1CCN(CCN2C(=O)c3cccc4cccc(c34)C2=O)CC1)Nc1ccc2ncsc2c1", "values": [{"measurement": "GI50", "setting": "UACC-257 melanoma", "result": 5.65, "unit": "µM"}, {"measurement": "TGI", "setting": "UACC-257 melanoma", "result": 23.7, "unit": "µM"}, {"measurement": "GI50", "setting": "PC-3 prostate", "result": 6.31, "unit": "µM"}, {"measurement": "TGI", "setting": "PC-3 prostate", "result": 34.6, "unit": "µM"}, {"measurement": "GI50", "setting": "U251 CNS", "result": 4.39, "unit": "µM"}, {"measurement": "TGI", "setting": "U251 CNS", "result": 17.2, "unit": "µM"}, {"measurement": "GI50", "setting": "LOX IMVI melanoma", "result": 4.93, "unit": "µM"}, {"measurement": "TGI", "setting": "LOX IMVI melanoma", "result": 20.4, "unit": "µM"}, {"measurement": "GI50", "setting": "UO-31 renal", "result": 6.21, "unit": "µM"}, {"measurement": "TGI", "setting": "UO-31 renal", "result": 30.8, "unit": "µM"}, {"measurement": "GI50", "setting": "MCF7 breast", "result": 4.65, "unit": "µM"}, {"measurement": "TGI", "setting": "MCF7 breast", "result": 17.5, "unit": "µM"}, {"measurement": "GI50", "setting": "BT-549 breast", "result": 11.9, "unit": "µM"}, {"measurement": "TGI", "setting": "BT-549 breast", "result": 30.1, "unit": "µM"}, {"measurement": "GI50", "setting": "M14 melanoma", "result": 8.63, "unit": "µM"}, {"measurement": "TGI", "setting": "M14 melanoma", "result": 22.2, "unit": "µM"}, {"measurement": "GI50", "setting": "HS 578T breast", "result": 43.3, "unit": "µM"}, {"measurement": "TGI", "setting": "HS 578T breast", "result": "> 100", "unit": "µM"}, {"measurement": "GI50", "setting": "SR leukemia", "result": 1.38, "unit": "µM"}, {"measurement": "TGI", "setting": "SR leukemia", "result": 41.2, "unit": "µM"}, {"measurement": "GI50", "setting": "T-47D breast", "result": 5.12, "unit": "µM"}, {"measurement": "TGI", "setting": "T-47D breast", "result": 30.5, "unit": "µM"}, {"measurement": "GI50", "setting": "MOLT-4 leukemia", "result": 2.87, "unit": "µM"}, {"measurement": "TGI", "setting": "MOLT-4 leukemia", "result": 15.3, "unit": "µM"}, {"measurement": "GI50", "setting": "TK-10 renal", "result": 10.5, "unit": "µM"}, {"measurement": "TGI", "setting": "TK-10 renal", "result": 23.7, "unit": "µM"}, {"measurement": "GI50", "setting": "786-0 renal", "result": 5.82, "unit": "µM"}, {"measurement": "TGI", "setting": "786-0 renal", "result": 20.8, "unit": "µM"}, {"measurement": "GI50", "setting": "SF-295 CNS", "result": 4.9, "unit": "µM"}, {"measurement": "TGI", "setting": "SF-295 CNS", "result": 20.7, "unit": "µM"}, {"measurement": "GI50", "setting": "HCT-116 colon", "result": 3.57, "unit": "µM"}, {"measurement": "TGI", "setting": "HCT-116 colon", "result": 16.4, "unit": "µM"}, {"measurement": "GI50", "setting": "COLO 205 colon", "result": 5.44, "unit": "µM"}, {"measurement": "TGI", "setting": "COLO 205 colon", "result": 54.6, "unit": "µM"}, {"measurement": "GI50", "setting": "HCT-15 colon", "result": 5.05, "unit": "µM"}, {"measurement": "TGI", "setting": "HCT-15 colon", "result": 20.1, "unit": "µM"}, {"measurement": "GI50", "setting": "CCRF-CEM leukemia", "result": 5.4, "unit": "µM"}, {"measurement": "TGI", "setting": "CCRF-CEM leukemia", "result": 53, "unit": "µM"}, {"measurement": "GI50", "setting": "UACC-62 melanoma", "result": 6.61, "unit": "µM"}, {"measurement": "TGI", "setting": "UACC-62 melanoma", "result": 22.4, "unit": "µM"}, {"measurement": "GI50", "setting": "MALME-3M melanoma", "result": 7.47, "unit": "µM"}, {"measurement": "TGI", "setting": "MALME-3M melanoma", "result": 24, "unit": "µM"}, {"measurement": "GI50", "setting": "IGROV1 ovarian", "result": 7.91, "unit": "µM"}, {"measurement": "TGI", "setting": "IGROV1 ovarian", "result": "> 100", "unit": "µM"}, {"measurement": "GI50", "setting": "NCI-H226 lung", "result": 7.58, "unit": "µM"}, {"measurement": "TGI", "setting": "NCI-H226 lung", "result": "> 100", "unit": "µM"}, {"measurement": "GI50", "setting": "HOP-92 NSCLC", "result": 5.24, "unit": "µM"}, {"measurement": "TGI", "setting": "HOP-92 NSCLC", "result": "> 100", "unit": "µM"}, {"measurement": "GI50", "setting": "RXF 393 renal", "result": 6.32, "unit": "µM"}, {"measurement": "TGI", "setting": "RXF 393 renal", "result": "> 100", "unit": "µM"}, {"measurement": "GI50", "setting": "OVCAR-4 ovarian", "result": 11.3, "unit": "µM"}, {"measurement": "TGI", "setting": "OVCAR-4 ovarian", "result": 26.5, "unit": "µM"}, {"measurement": "GI50", "setting": "RPMI-8226 leukemia", "result": 9.39, "unit": "µM"}, {"measurement": "TGI", "setting": "RPMI-8226 leukemia", "result": 38.1, "unit": "µM"}, {"measurement": "GI50", "setting": "OVCAR-3 ovarian", "result": 7.34, "unit": "µM"}, {"measurement": "TGI", "setting": "OVCAR-3 ovarian", "result": 21.5, "unit": "µM"}, {"measurement": "GI50", "setting": "ACHN renal", "result": 4.09, "unit": "µM"}]}]}
